Results reported in paper PMC5078040 (Oncotarget, 2016).

Experiments:
NDR2 = molecular target: T1, NDR2 (Homo sapiens, UniProt Q9Y2H1); assay: KinomeScan; format: binding; settings: 1uM
T1 construct: purchased DiscoveRx KINOMEscan

[1] = test system: NF-kB P65 phosphorylation; assay: Signaling pathway effect examination (western blotting); format: cell-based, human; settings: any of the tested cell lines
Description: (§1) The cells were collected and lysed, and cell lysates were analyzed by western blotting.

Erk phosphorylation = assay: as above; format: cell-based, human
Description: as §1

4EBP1 phosphorylation = assay: as above; format: cell-based, human; settings: all of the cell lines
Description: as §1

[2] = test system: phosphorylation of Akt at both Thr308 and Ser473; assay: as above; format: cell-based, human; settings: 1 hour
Description: as §1

[3] = test system: phosphorylation of PRAS40 GSK3b and FOXO1; assay: as above; format: cell-based, human; settings: B-cell malignant cell lines
Description: as §1

MAPKAPK5 = molecular target: T2, MAPKAPK5 (Homo sapiens, UniProt Q8IW41); assay: KinomeScan; format: binding; settings: 1uM
T2 construct: purchased DiscoveRx KINOMEscan

FLT3 = molecular target: T3, FLT3 (Homo sapiens, UniProt P36888); assay: KinomeScan; format: binding; settings: 1uM
T3 construct: purchased DiscoveRx KINOMEscan

SGK2 = molecular target: T4, SGK2 (Homo sapiens, UniProt Q9HBY8); assay: KinomeScan; format: binding; settings: 1uM
T4 construct: purchased DiscoveRx KINOMEscan
T4 sequence (Q9HBY8 whole entry): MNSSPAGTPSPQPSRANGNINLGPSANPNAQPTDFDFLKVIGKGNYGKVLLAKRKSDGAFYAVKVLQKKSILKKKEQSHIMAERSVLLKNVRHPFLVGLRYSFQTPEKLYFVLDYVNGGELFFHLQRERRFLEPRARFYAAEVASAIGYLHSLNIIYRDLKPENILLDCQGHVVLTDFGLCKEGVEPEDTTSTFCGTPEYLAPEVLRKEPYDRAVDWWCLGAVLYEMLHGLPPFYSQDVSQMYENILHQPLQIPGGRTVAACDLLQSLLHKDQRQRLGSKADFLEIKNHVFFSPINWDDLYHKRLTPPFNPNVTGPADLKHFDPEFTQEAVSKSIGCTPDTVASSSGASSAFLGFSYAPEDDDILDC

CHEK2 = molecular target: T5, CHEK2 (Homo sapiens, UniProt O96017); assay: KinomeScan; format: binding; settings: 1uM
T5 construct: purchased DiscoveRx KINOMEscan

KIT(D816H) = molecular target: T6, KIT(D816H) (Homo sapiens, UniProt P10721, D816H); assay: KinomeScan; format: binding; settings: 1uM
T6 construct: purchased DiscoveRx KINOMEscan

FER = molecular target: T7, FER (Homo sapiens, UniProt P16591); assay: KinomeScan; format: binding; settings: 1uM
T7 construct: purchased DiscoveRx KINOMEscan

ACVR1 = molecular target: T8, ACVR1 (Homo sapiens, UniProt Q04771); assay: KinomeScan; format: binding; settings: 1uM
T8 construct: purchased DiscoveRx KINOMEscan

TNK2 = molecular target: T9, TNK2 (Homo sapiens, UniProt Q07912); assay: KinomeScan; format: binding; settings: 1uM
T9 construct: purchased DiscoveRx KINOMEscan
T9 sequence (Q07912 whole entry): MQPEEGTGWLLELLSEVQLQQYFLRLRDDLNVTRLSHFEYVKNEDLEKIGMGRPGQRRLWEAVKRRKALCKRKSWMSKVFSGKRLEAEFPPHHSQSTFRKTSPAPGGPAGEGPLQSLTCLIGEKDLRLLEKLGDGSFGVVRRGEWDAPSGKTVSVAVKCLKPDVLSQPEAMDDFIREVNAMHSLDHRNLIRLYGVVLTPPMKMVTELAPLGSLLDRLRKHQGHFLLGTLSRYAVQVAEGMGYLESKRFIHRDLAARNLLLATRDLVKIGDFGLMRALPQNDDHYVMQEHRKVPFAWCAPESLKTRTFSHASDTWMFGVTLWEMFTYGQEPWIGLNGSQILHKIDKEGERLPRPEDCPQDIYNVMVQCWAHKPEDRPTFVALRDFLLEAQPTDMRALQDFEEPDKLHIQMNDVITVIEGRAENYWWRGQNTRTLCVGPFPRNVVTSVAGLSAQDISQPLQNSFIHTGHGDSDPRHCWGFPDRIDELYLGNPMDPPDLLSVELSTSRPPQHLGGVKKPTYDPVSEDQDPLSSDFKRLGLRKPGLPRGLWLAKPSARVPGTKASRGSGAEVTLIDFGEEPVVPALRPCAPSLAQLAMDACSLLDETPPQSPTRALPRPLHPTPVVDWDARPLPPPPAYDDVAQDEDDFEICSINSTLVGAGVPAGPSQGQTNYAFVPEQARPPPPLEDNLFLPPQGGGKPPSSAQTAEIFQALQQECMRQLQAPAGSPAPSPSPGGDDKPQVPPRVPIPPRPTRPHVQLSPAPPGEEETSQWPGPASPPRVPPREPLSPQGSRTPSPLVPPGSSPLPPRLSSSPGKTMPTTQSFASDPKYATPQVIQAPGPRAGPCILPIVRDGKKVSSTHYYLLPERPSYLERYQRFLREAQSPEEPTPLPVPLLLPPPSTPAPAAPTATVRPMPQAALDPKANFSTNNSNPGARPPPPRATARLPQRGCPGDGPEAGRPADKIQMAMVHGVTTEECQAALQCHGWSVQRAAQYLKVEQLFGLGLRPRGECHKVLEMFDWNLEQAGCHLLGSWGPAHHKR

FLT3(R834Q) = molecular target: T10, FLT3(R834Q) (Homo sapiens, UniProt P36888, R834Q); assay: KinomeScan; format: binding; settings: 1uM
T10 construct: purchased DiscoveRx KINOMEscan

MKNK1 = molecular target: T11, MKNK1 (Homo sapiens, UniProt Q9BUB5); assay: KinomeScan; format: binding; settings: 1uM
T11 construct: purchased DiscoveRx KINOMEscan

SgK110 = molecular target: T12, SgK110 (Homo sapiens, UniProt P0C264); assay: KinomeScan; format: binding; settings: 1uM
T12 construct: purchased DiscoveRx KINOMEscan

CASK = molecular target: T13, CASK (Homo sapiens, UniProt O14936); assay: KinomeScan; format: binding; settings: 1uM
T13 construct: purchased DiscoveRx KINOMEscan

MAP3K1 = molecular target: T14, MAP3K1 (Homo sapiens, UniProt Q13233); assay: KinomeScan; format: binding; settings: 1uM
T14 construct: purchased DiscoveRx KINOMEscan

MARK1 = molecular target: T15, MARK1 (Homo sapiens, UniProt Q9P0L2); assay: KinomeScan; format: binding; settings: 1uM
T15 construct: purchased DiscoveRx KINOMEscan

FGFR3 = molecular target: T16, FGFR3 (Homo sapiens, UniProt P22607); assay: KinomeScan; format: binding; settings: 1uM
T16 construct: purchased DiscoveRx KINOMEscan

[4] = molecular target: T17, RSK3(Kin.Dom.1-N-terminal) (Homo sapiens, UniProt Q15349); assay: KinomeScan; format: binding; settings: 1uM
T17 construct: RSK3(Kin.Dom.1-N-terminal); purchased DiscoveRx KINOMEscan

TYRO3 = molecular target: T18, TYRO3 (Homo sapiens, UniProt Q06418); assay: KinomeScan; format: binding; settings: 1uM
T18 construct: purchased DiscoveRx KINOMEscan

EGFR(L747-T751del,Sins) = assay: KinomeScan; format: binding; settings: 1uM
EGFR(T790M) = molecular target: T19, EGFR(T790M) (Homo sapiens, UniProt P00533, T790M); assay: KinomeScan; format: binding; settings: 1uM
T19 construct: purchased DiscoveRx KINOMEscan
T19 sequence (P00533 25-1210 T790M): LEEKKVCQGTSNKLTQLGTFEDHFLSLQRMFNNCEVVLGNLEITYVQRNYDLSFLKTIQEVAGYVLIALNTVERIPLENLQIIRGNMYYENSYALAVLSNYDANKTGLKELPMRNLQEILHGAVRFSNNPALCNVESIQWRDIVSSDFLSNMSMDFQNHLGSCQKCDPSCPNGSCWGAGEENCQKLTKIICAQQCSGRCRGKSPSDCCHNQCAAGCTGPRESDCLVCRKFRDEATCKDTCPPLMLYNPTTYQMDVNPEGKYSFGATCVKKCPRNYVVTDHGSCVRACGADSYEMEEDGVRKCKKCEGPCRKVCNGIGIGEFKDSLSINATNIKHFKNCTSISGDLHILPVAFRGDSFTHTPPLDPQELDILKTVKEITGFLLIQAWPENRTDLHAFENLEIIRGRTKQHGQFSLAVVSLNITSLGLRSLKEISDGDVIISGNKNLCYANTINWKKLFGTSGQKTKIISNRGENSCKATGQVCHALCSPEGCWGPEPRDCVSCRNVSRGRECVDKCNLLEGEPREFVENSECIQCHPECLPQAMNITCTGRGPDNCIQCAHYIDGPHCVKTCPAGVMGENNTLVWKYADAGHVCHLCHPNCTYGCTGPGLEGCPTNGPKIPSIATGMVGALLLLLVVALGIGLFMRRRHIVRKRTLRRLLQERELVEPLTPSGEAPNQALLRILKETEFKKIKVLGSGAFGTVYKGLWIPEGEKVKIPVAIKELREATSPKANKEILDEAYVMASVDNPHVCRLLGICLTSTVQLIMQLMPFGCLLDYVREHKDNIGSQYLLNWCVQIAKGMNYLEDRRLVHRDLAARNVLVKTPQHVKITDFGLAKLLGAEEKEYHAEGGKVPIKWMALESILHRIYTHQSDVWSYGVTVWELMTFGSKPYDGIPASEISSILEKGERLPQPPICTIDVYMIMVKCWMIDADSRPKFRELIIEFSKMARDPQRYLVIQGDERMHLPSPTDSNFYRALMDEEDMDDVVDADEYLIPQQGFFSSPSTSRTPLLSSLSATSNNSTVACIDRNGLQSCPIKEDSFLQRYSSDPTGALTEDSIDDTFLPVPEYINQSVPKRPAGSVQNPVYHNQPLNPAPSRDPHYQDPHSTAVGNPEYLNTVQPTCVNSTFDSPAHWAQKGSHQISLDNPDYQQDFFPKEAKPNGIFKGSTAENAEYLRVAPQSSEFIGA

PIM3 = molecular target: T20, PIM3 (Homo sapiens, UniProt Q86V86); assay: KinomeScan; format: binding; settings: 1uM
T20 construct: purchased DiscoveRx KINOMEscan

[5] = molecular target: T21, ABL1(E255K)-phosphorylated (Homo sapiens, UniProt P00519, E255K); assay: KinomeScan; format: binding; settings: 1uM
T21 construct: purchased DiscoveRx KINOMEscan

FLT3(ITD) = assay: KinomeScan; format: binding; settings: 1uM
CDK4-cyclinD1 = molecular target: T22, CDK4-cyclinD1 (Homo sapiens, UniProt P11802); assay: KinomeScan; format: binding; settings: 1uM
T22 construct: purchased DiscoveRx KINOMEscan
T22 sequence (P11802 whole entry): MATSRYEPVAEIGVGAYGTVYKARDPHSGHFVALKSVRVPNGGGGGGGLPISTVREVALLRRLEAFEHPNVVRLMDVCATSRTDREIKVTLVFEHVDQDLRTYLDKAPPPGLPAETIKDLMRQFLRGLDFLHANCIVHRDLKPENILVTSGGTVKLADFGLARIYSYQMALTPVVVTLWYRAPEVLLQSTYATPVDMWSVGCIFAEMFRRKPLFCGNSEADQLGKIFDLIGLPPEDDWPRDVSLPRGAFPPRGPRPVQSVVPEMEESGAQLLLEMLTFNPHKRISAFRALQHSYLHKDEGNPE
T22 sequence (P24385 whole entry partner): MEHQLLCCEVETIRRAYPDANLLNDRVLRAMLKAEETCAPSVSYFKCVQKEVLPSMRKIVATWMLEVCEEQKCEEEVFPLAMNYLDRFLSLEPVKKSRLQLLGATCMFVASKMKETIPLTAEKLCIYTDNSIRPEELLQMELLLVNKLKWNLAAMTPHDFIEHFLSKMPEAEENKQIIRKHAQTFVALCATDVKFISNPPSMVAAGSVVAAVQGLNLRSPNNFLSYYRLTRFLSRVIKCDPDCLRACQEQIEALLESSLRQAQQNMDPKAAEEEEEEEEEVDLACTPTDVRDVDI

MUSK = molecular target: T23, MUSK (Homo sapiens, UniProt O15146); assay: KinomeScan; format: binding; settings: 1uM
T23 construct: purchased DiscoveRx KINOMEscan

AAK1 = molecular target: T24, AAK1 (Homo sapiens, UniProt Q2M2I8); assay: KinomeScan; format: binding; settings: 1uM
T24 construct: purchased DiscoveRx KINOMEscan

[6] = molecular target: T25, ABL1(Q252H)-phosphorylated (Homo sapiens, UniProt P00519, Q252H); assay: KinomeScan; format: binding; settings: 1uM
T25 construct: purchased DiscoveRx KINOMEscan

PIK4CB = molecular target: T26, PIK4CB (Homo sapiens, UniProt Q9UBF8); assay: KinomeScan; format: binding; settings: 1uM
T26 construct: purchased DiscoveRx KINOMEscan

MEC-1 (CLL) = assay: Colony formation assay; format: cell-based; settings: Homo sapiens, MEC1, 360 h; MEC-1, 15 days; read-out: anti-colony formation EC50
Description: (§2) In brief, 1 mL of 3 % agarose combined with 1 mL HT, REC-1, MEC-1 and MOLM-13 growth media was used as the bottom agar in a 6-well plate. […] Cells were maintained in a humidified 5% CO2 incubator at 37°C for 15 days. On the 15th day, the numbers of colonies in each well were counted and each measurement was performed in triplicate.

MOLM13 (AML) = assay: Colony formation assay; format: cell-based; settings: Homo sapiens, MOLM-13, 360 h; MOLM13, 15 days; read-out: anti-colony formation EC50
Description: as §2

HT (B-NHL) = assay: Colony formation assay; format: cell-based; settings: Homo sapiens, HT15, 360 h, 15 days, read-out: anti-colony formation EC50
Description: as §2

PIK3C2B = molecular target: T27, PIK3C2B (Homo sapiens, UniProt O00750); assay: ADP-glo biochemical assay
T27 construct: purchased Invitrogen
T27 sequence (O00750 whole entry): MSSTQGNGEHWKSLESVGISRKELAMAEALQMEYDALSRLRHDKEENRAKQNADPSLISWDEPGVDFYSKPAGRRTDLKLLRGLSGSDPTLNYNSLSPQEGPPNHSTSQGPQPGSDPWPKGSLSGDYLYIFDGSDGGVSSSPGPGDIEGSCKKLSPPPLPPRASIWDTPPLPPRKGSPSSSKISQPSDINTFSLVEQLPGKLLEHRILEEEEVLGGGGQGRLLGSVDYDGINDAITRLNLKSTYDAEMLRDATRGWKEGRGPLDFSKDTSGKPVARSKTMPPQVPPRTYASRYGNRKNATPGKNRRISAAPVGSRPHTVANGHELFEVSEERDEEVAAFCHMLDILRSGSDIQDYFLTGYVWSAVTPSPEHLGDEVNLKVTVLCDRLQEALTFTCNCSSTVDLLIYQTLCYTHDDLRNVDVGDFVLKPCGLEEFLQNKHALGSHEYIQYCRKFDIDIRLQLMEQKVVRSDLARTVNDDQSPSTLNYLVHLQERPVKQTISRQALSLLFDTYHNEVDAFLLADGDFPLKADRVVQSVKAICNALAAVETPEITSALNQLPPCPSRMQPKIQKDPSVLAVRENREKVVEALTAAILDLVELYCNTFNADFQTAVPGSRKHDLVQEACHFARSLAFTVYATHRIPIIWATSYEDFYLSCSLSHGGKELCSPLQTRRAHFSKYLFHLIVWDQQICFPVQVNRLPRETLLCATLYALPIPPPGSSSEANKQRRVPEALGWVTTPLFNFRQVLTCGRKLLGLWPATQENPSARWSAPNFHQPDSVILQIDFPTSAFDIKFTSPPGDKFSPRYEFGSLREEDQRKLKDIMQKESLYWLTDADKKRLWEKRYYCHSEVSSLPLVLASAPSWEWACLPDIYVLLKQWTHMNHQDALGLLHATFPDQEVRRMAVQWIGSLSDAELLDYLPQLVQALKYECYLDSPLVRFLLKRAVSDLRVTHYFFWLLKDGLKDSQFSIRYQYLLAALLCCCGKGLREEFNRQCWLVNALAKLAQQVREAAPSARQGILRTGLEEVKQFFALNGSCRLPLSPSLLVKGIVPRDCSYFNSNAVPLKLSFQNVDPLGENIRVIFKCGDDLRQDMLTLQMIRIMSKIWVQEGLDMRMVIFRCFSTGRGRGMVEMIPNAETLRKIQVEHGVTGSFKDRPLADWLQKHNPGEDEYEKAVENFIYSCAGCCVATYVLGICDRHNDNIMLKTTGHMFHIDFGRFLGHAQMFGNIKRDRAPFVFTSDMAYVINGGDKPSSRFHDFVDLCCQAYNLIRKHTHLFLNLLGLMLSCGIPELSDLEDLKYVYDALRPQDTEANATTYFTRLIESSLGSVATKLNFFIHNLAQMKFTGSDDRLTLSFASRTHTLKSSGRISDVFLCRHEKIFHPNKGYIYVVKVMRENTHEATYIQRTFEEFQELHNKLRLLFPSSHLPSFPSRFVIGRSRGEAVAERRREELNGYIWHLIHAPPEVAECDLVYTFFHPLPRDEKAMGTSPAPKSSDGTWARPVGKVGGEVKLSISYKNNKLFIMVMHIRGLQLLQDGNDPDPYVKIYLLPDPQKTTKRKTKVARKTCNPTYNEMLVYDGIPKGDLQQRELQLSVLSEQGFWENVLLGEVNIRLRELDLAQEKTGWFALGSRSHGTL
Description: The reaction in each tube was started immediately by adding ATP and kept going for an hour under 37°C. After the tube cooled for 5 minutes at room temperature, 5 μL solvent reactions were carried out in a 384-well plate. Then 5 μL of ADP-Glo™ reagent was added into each well to stop the reaction and consume the remaining ADP within 40 minutes. At the end, 10 μL of kinase detection reagent was added into the well and incubated for 30 minutes to produce a luminescence signal. Luminescence signal was measured with an automated plate reader (Perkin-Elmer Envision) and each measurement was performed in triplicate.

TLK1 = molecular target: T28, TLK1 (Homo sapiens, UniProt Q9UKI8); assay: KinomeScan; format: binding; settings: 1uM
T28 construct: purchased DiscoveRx KINOMEscan

`Cc1nc(NC(=O)[C@@H](N)C(C)C)sc1-c1cnc(Cl)c(NS(=O)(=O)c2ccccc2)c1` [PI3KD-IN-015] was tested, and the “KinomeScan NDR2” value (NDR2) was 100, the “NF-kB P65 phosphorylation” value [1] was “not inhibited” and the Erk phosphorylation (Erk phosphorylation; MOLM13 and HT cells) was “not in MOLM13 and HT”. The Erk phosphorylation (Erk phosphorylation; Namalwa, MEC-1, MEC-2 and HS505T cells) was “reduced”, the 4EBP1 phosphorylation (4EBP1 phosphorylation) was “not changed at all” and the EC50 ([2]; Homo sapiens, CLL cell, HS505T (CLL) cells) was under 1000 nM. For the same compound, the EC50 ([2]; Homo sapiens, HT (B-NHL) cells) was under 1000 nM, the EC50 ([2]; Homo sapiens, MOLM-13 (AML) cells) was under 1000 nM and the EC50 ([2]; MEC-1 (CLL) cells) was under 1000 nM. The EC50 ([2]; MEC-2 (CLL) cells) was under 1000 nM, the EC50 ([2]; Namalwa (Burkitt Lymphoma) cells) was under 1000 nM and the “phosphorylation of Akt substrates PRAS40 GSK3b and FOXO1” value [3] was “decreased phosphorylation”. The “KinomeScan MAPKAPK5” value (MAPKAPK5) was 82, the “KinomeScan FLT3” value (FLT3) was 100 and the “KinomeScan SGK2” value (SGK2) was 81. For the same compound, the “KinomeScan CHEK2” value (CHEK2) was 88, the “KinomeScan KIT(D816H)” value (KIT(D816H)) was 92 and the “KinomeScan FER” value (FER) was 89. For the same compound, the “KinomeScan ACVR1” value (ACVR1) was 100, the “KinomeScan TNK2” value (TNK2) was 100 and the “KinomeScan FLT3(R834Q)” value (FLT3(R834Q)) was 84. The “KinomeScan MKNK1” value (MKNK1) was 100, the “KinomeScan SgK110” value (SgK110) was 100 and the “KinomeScan CASK” value (CASK) was 95. The “KinomeScan MAP3K1” value (MAP3K1) was 96, the “KinomeScan MARK1” value (MARK1) was 100 and the “KinomeScan FGFR3” value (FGFR3) was 100. For the same compound, the “KinomeScan RSK3(Kin.Dom.1-N-terminal)” value [4] was 100, the “KinomeScan TYRO3” value (TYRO3) was 100 and the “KinomeScan EGFR(L747-T751del,Sins)” value (EGFR(L747-T751del,Sins)) was 100. The “KinomeScan EGFR(T790M)” value (EGFR(T790M)) was 70, the “KinomeScan PIM3” value (PIM3) was 100 and the “KinomeScan ABL1(E255K)-phosphorylated” value [5] was 77. The “KinomeScan FLT3(ITD)” value (FLT3(ITD)) was 100, the “KinomeScan CDK4-cyclinD1” value (CDK4-cyclinD1) was 90 and the “KinomeScan MUSK” value (MUSK) was 96. For the same compound, the “KinomeScan AAK1” value (AAK1) was 100, the “KinomeScan ABL1(Q252H)-phosphorylated” value [6] was 90 and the “KinomeScan PIK4CB” value (PIK4CB) was 0.8. For the same compound, the EC50 (MEC-1 (CLL)) was 765 nM, the EC50 (MOLM13 (AML)) was 215 nM and the EC50 (HT (B-NHL)) was 374 nM. For the same compound, the IC50 (PIK3C2B) was over 10000 nM and the “KinomeScan TLK1” value (TLK1) was 79.
